Test results taken from US10738062B2, “Chromane-substituted tetracyclic compounds and uses thereof for the treatment of viral diseases” (Merck Sharp & Dohme Corp., priority 2016, dated 2020).
Like-named read-outs stand apart in the source and are kept apart here.

Columns and labels:
Design in all cases: species or system Hepatitis C virus
HCV replicon 1A = test: Cell-based HCV replicon assay (Replicon Assay A), replicon 1A; details: replicon RNA by real time PCR, day 3
Description: (§1) To measure cell-based anti-HCV activity of compounds of the present invention, two complimentary assays were employed using various replicons. In the first assay (“Replicon Assay A”), replicon cells were seeded at 2000 cells/well in 384-well 384-well flat bottom tissue culture treated clear bottom plate (Corning 3707) in the presence of the test compound. Various concentrations of test compound, typically in 10 serial dilutions, were added to the assay mixture, with the starting concentration ranging from 333.3 nM to 1.667 nM. The final concentration of DMSO was 0.5%. Fetal bovine serum was 5%, in the assay media. Cells were harvested on day 3 by removing media and washing the cells with a suitable wash buffer. The cells were lysed with the addition of 1× Qiagen lysis buffer (Cat #1062731). The replicon RNA level was measured using real time PCR (TaqMan® EZ RT-PCR, Applied Biosystems 403028) with the following primers and probes: […]
(§2) Cyclophilin RNA was used as endogenous control and was amplified in the same reaction as NS5B (multiplex PCR). The real-time RT-PCR reactions were run on ABI PRISM 7900HT Sequence Detection System using the following program: 50° C. for 2 minutes, 60° C. for 30 minutes, 95° C. for 5 minutes, 40 cycles of 94° C. for 20 sec, 55° C. for 1 minutes.
(§3) The amount of HCV replicon RNA per cell was quantified using a linear regression curve for a known nanogram (ng) amount of HCV replicon total RNA. This was established by plotting the Cycle Threshold values (Ct) from the Neo probe and primer set versus the log (ng) for each HCV replicon total RNA standard. The amount of HCV RNA for each replicon sample was calculated by taking the sample's Ct value, minus the line intercept, divided by the slope of the line. Similarly, the amount of Cyclophilin mRNA per cell was also quantified using a linear regression curve for a known nanogram (ng) amount of HCV replicon total RNA. Again, this was established by plotting the Cycle Threshold values (Ct) from the Cyclophilin probe and primer set versus the log (ng) for each HCV replicon total RNA standard.
(§4) The real-time RT-PCR reactions were run on ABI PRISM 7900HT or Viia7 Sequence Detection System using the following program: 48° C. for 30 minutes, 95° C. for 10 minutes, 40 cycles of 95° C. for 15 sec, 60° C. for 1 minutes. The 50% effective concentration (EC50) was the drug concentration necessary to achieve an increase in the cycle threshold (CT) of 1 over the projected baseline CT.
(§5) Data was obtained for various compounds of the present invention using the methods described in the Example above, and is presented in the table immediately below. EC50 data for replicons 1A, 1AY93H and 2B were obtained using Replicon Assay A and EC50 data for replicon 1B was obtained using Replicon Assay B.

HCV replicon 2B = test: Cell-based HCV replicon assay (Replicon Assay A), replicon 2B; details: replicon RNA by real time PCR, day 3
Description: as §1, §2, §3, §4, §5

HCV replicon 1A Y93H = test: Cell-based HCV replicon assay (Replicon Assay A), replicon 1AY93H; details: read-out: EC50 replicon 1A Y93H; Replicon Assay A; replicon RNA by real time PCR, day 3
Description: as §1, §2, §3, §4, §5

[1] = read-out: EC50 replicon 2B, Replicon Assay A

SMILES	EC50 (HCV replicon 1A; Hepatitis C virus, 72 h)	EC50 (HCV replicon 2B; [1])	EC50 (HCV replicon 1A Y93H)	EC50 (HCV replicon 1A)	EC50 (HCV replicon 2B; Hepatitis C virus, 72 h, read-out: EC50 replicon 2B, Replicon Assay A)
COC(=O)N[C@H](C(=O)N1CCC[C@H]1c1ncc(-c2cc(F)c3c(c2)OC(c2ccc4c(c2)OCCC4C)n2c-3cc3cc(-c4cnc([C@@H]5CCCN5C(=O)[C@@H](NC(=O)OC)C(C)C)[nH]4)ccc32)[nH]1)C(C)C (single isomer, unassigned) [Compound 7]	1.7 pM	1.59 nM	2.18 nM	–	–
COC(=O)N[C@H](C(=O)N1CCC[C@H]1c1ncc(-c2cc(F)c3c(c2)OC(c2ccc4c(c2)OCCC4C)n2c-3cc3cc(-c4cnc([C@@H]5CCCN5C(=O)[C@@H](NC(=O)OC)C(C)C)[nH]4)ccc32)[nH]1)C(C)C (single isomer, unassigned) [Compound 9]	–	0.772 nM	0.949 nM	2.6 pM	–
COC(=O)N[C@H](C(=O)N1CCC[C@H]1c1ncc(-c2cc(F)c3c(c2)OC(c2ccc4c(c2)OC(C)CC4)n2c-3cc3cc(-c4cnc([C@@H]5CCCN5C(=O)[C@@H](NC(=O)OC)C(C)C)[nH]4)ccc32)[nH]1)C(C)C (single isomer, unassigned) [Compound 11]	2.5 pM	1.39 nM	5.7 nM	–	–
COC(=O)N[C@H](C(=O)N1CCC[C@H]1c1ncc(-c2cc(F)c3c(c2)OC(c2ccc4c(c2)OC(C)CC4)n2c-3cc3cc(-c4cnc([C@@H]5CCCN5C(=O)[C@@H](NC(=O)OC)C(C)C)[nH]4)ccc32)[nH]1)C(C)C (single isomer, unassigned) [Compound 12]	–	1.9 nM	6.73 nM	1.6 pM	–
COC(=O)N[C@H](C(=O)N1CCC[C@H]1c1ncc(-c2cc(F)c3c(c2)OC(c2ccc4c(c2)OCCC42CC2)n2c-3cc3cc(-c4cnc([C@@H]5CCCN5C(=O)[C@@H](NC(=O)OC)C(C)C)[nH]4)ccc32)[nH]1)C(C)C (single isomer, unassigned) [Compound 15]	1.2 pM	1.31 nM	2.15 nM	–	–
COC(=O)N[C@H](C(=O)N1CCC[C@H]1c1ncc(-c2cc(F)c3c(c2)OC(c2ccc4c(c2)OCCC42CC2)n2c-3cc3cc(-c4cnc([C@@H]5CCCN5C(=O)[C@@H](NC(=O)OC)C(C)C)[nH]4)ccc32)[nH]1)C(C)C (single isomer, unassigned) [Compound 16]	–	0.038 nM	0.031 nM	2 pM	–
COC(=O)N[C@H](C(=O)N1CCC[C@H]1c1ncc(-c2cc(F)c3c(c2)OC(c2ccc4c(c2)OC(C)(C)CC4)n2c-3cc3cc(-c4cnc([C@@H]5CCCN5C(=O)[C@@H](NC(=O)OC)C(C)C)[nH]4)ccc32)[nH]1)C(C)C (single isomer, unassigned) [Compound 17]	–	5.21 nM	11.8 nM	–	–
COC(=O)N[C@H](C(=O)N1CCC[C@H]1c1ncc(-c2cc(F)c3c(c2)OC(c2ccc4c(c2)OC(C)(C)CC4)n2c-3cc3cc(-c4cnc([C@@H]5CCCN5C(=O)[C@@H](NC(=O)OC)C(C)C)[nH]4)ccc32)[nH]1)C(C)C (single isomer, unassigned) [Compound 18]	2.2 pM	0.252 nM	0.052 nM	–	–
COC(=O)N[C@H](C(=O)N1CCC[C@H]1c1ncc(-c2cc(F)c3c(c2)OC(c2ccc4c(c2)OCCC4(F)F)n2c-3cc3cc(-c4cnc([C@@H]5CCCN5C(=O)[C@@H](NC(=O)OC)C(C)C)[nH]4)ccc32)[nH]1)C(C)C (single isomer, unassigned) [Compound 19]	1.4 pM	0.767 nM	4.2 nM	–	–
COC(=O)N[C@H](C(=O)N1CCC[C@H]1c1ncc(-c2cc(F)c3c(c2)OC(c2ccc4c(c2)CCC(C)(C)O4)n2c-3cc3cc(-c4cnc([C@@H]5CCCN5C(=O)[C@@H](NC(=O)OC)C(C)C)[nH]4)ccc32)[nH]1)C(C)C (single isomer, unassigned) [Compound 21]	1.5 pM	3.56 nM	7.11 nM	–	–
COC(=O)N[C@H](C(=O)N1CCC[C@H]1c1ncc(-c2cc(F)c3c(c2)OC(c2ccc4c(c2)CCC(C)(C)O4)n2c-3cc3cc(-c4cnc([C@@H]5CCCN5C(=O)[C@@H](NC(=O)OC)C(C)C)[nH]4)ccc32)[nH]1)C(C)C (single isomer, unassigned) [Compound 22]	–	0.93 nM	0.162 nM	2.7 pM	–
COC(=O)N[C@H](C(=O)N1CCC[C@H]1c1ncc(-c2cc(F)c3c(c2)OC(c2ccc4c(c2)CCCO4)n2c-3cc3cc(-c4cnc([C@@H]5CCCN5C(=O)[C@@H](NC(=O)OC)C(C)C)[nH]4)ccc32)[nH]1)C(C)C (single isomer, unassigned) [Compound 23]	2 pM	5.17 nM	2.62 nM	–	–
COC(=O)N[C@H](C(=O)N1CCC[C@H]1c1ncc(-c2cc(F)c3c(c2)OC(c2ccc4c(c2)CCCO4)n2c-3cc3cc(-c4cnc([C@@H]5CCCN5C(=O)[C@@H](NC(=O)OC)C(C)C)[nH]4)ccc32)[nH]1)C(C)C (single isomer, unassigned) [Compound 24]	–	1.77 nM	0.282 nM	1.6 pM	–
COC(=O)N[C@H](C(=O)N1CCC[C@H]1c1ncc(-c2cc(F)c3c(c2)OC(c2ccc4c(c2)CC2CC2(C)O4)n2c-3cc3cc(-c4cnc([C@@H]5CCCN5C(=O)[C@@H](NC(=O)OC)C(C)C)[nH]4)ccc32)[nH]1)C(C)C (single isomer, unassigned) [Compound 25]	3.7 pM	3.83 nM	4.67 nM	–	–
COC(=O)N[C@H](C(=O)N1CCC[C@H]1c1ncc(-c2cc(F)c3c(c2)OC(c2ccc4c(c2)OCCC4)n2c-3cc3cc(-c4cnc([C@@H]5C[C@@H](F)CN5C(=O)[C@@H](c5ccccc5)N5CCC5)[nH]4)ccc32)[nH]1)C(C)C (single isomer, unassigned) [Compound 37]	–	–	15.2 nM	187 pM	–
COC(=O)N[C@H](C(=O)N1CCC[C@H]1c1ncc(-c2cc(F)c3c(c2)OC(c2ccc4c(c2)OCCC4)n2c-3cc3cc(-c4cnc([C@@H]5C[C@@H](F)CN5C(=O)[C@@H](c5ccccc5)N5CCC5)[nH]4)ccc32)[nH]1)C(C)C (single isomer, unassigned) [Compound 38]	–	–	6.65 nM	5.2 pM	–
COC(=O)NC(C(=O)N1CCC[C@H]1c1ncc(-c2ccc3c(c2)cc2n3C(c3ccc4c(c3)OCCC4)Oc3cc(-c4cnc([C@@H]5CCCN5C(=O)[C@@H](NC(=O)OC)C(C)C)[nH]4)cc(F)c3-2)[nH]1)C(C)(C)F (single isomer, unassigned) [Compound 41]	–	4.13 nM	–	–	–
COC(=O)NC(C(=O)N1CCC[C@H]1c1ncc(-c2ccc3c(c2)cc2n3C(c3ccc4c(c3)OCCC4)Oc3cc(-c4cnc([C@@H]5CCCN5C(=O)[C@@H](NC(=O)OC)C(C)C)[nH]4)cc(F)c3-2)[nH]1)C(C)(C)F (single isomer, unassigned) [Compound 44]	–	4.91 nM	–	–	–
COC(=O)N[C@H](C(=O)N1CCC[C@H]1c1ncc(-c2cc(F)c3c(c2)OC(c2ccc4c(c2)OCC4)n2c-3cc3cc(-c4cnc([C@@H]5C[C@H]6C[C@H]6N5C(=O)[C@@H](NC(=O)OC)C(C)C)[nH]4)ccc32)[nH]1)C(C)C (single isomer, unassigned) [Compound 47]	–	4.32 nM	4.52 nM	–	–
CCN(CC)[C@@H](C(=O)N1[C@@H]2C[C@@H]2C[C@H]1c1ncc(-c2ccc3c(c2)cc2n3C(c3ccc4c(c3)OCCC4)Oc3cc(-c4cnc([C@@H]5CCCN5C(=O)[C@@H](NC(=O)OC)C5CCOCC5)[nH]4)cc(F)c3-2)[nH]1)c1ccccc1 (single isomer, unassigned) [Compound 53]	–	0.379 nM	–	–	–
COC(=O)N[C@H](C(=O)N1CCC[C@H]1c1ncc(-c2cc(F)c3c(c2)OC(c2ccc4c(c2)OCCC4)n2c-3cc3cc(-c4cnc([C@@H]5C[C@H]6C[C@H]6N5C(=O)[C@@H](c5ccccc5)N5CCC5)[nH]4)ccc32)[nH]1)C1CCOCC1 (single isomer, unassigned) [Compound 71]	–	–	–	–	5.13 nM
COC(=O)N[C@H](C(=O)N1CCC[C@H]1c1ncc(-c2cc(F)c3c(c2)OC(c2ccc4c(c2)OCCC4)n2c-3cc3cc(-c4cnc([C@@H]5C[C@H]6C[C@H]6N5C(=O)[C@@H](c5ccccc5)N5CCC5)[nH]4)ccc32)[nH]1)C1CCOCC1 (single isomer, unassigned) [Compound 72]	–	3.3 nM	–	–	–
